Results from patent US7105502B2, “Nitric oxide-releasing imidate and thioimidate diazeniumdiolates” (The United States of America as represented by the …, priority 2001, dated 2006).

What was measured:
[1] = Detection of NO released in solution, headspace swept with argon into a chemiluminescence detector; assay type: physicochemical
Protocol: The nitrites and all solvents were purchased from Aldrich Chemical Company (Milwaukee, Wis.). Nitric oxide was obtained form Matheson Gas Products (Montgomeryville, Pa.). The ^1H NMR and ^13C NMR spectra were recorded in D2O (^1H at 300 MHz; ^13C at 75 MHz). Ultraviolet spectra (10 mM NaOH unless otherwise specified) and kinetic information were obtained on a Hewlett Packard 8452A UV-visible spectrophotometer with a thermostated cell holder. Infrared data was recorded on a Perkin-Elmer 1430 infrared spectrometer. Nitric oxide was measured with a Thermal Energy Analyzer model 502A (Thermedics, Inc., Woburn, Mass.). Melting points are uncorrected. Elemental analyses were performed by Atlantic Microlab, Inc. (Norcross, Ga.).
(§1) For the detection of NO, selected compounds from the examples were dissolved in either pH 7.4 buffer or 10% H2SO4, and the headspace was swept with argon into a chemiluminescence detector. The detection of nitrous oxide (N2O), formed from the dimerization and dehydration of HNO, was done by gas chromatography in both pH 7.4 buffer and 0.1 M HCl.

[2] = Detection of nitrous oxide (N2O) by gas chromatography; assay type: physicochemical; details: acid (0.1 M HCl)
Protocol: as §1

Substance	NO (mole gas/mole cmpd) ([1]; acid (10% H2SO4))	NO (mole gas/mole cmpd) ([1]; pH 7.4 buffer)	N2O (mole gas/mole cmpd) [2]
1-naphthyl diazeniumdiolate amide [Example 9]	0.02 mole gas/mole cmpd	0.16 mole gas/mole cmpd	–
benzyl diazeniumdiolate methoxy imidate [Example 2]	0.46 mole gas/mole cmpd	0.36 mole gas/mole cmpd	1.52 mole gas/mole cmpd
